Experimental data reported in patent US8101622B2, “Pyridopyrimidinone inhibitors of PI3Kα and mTOR” (Exelixis, Inc., priority 2008, dated 2012).
Blank lines part the entries; values can stand above or below the compound they belong to.

How the values were obtained:
[1] = molecular target: PI3Kα (Homo sapiens, UniProt P42336); experiment: PI3K luciferase-coupled chemiluminescence assay (PI3Kα); format: biochemical; settings: first value of cell 'P13K-α, β'; 1 μM ATP, 10 μM PIP2
Procedure: (§1) PI3K Luciferase-Coupled Chemiluminescence Assay Protocol
(§2) PI3Kα activity is measured as the percent of ATP consumed following the kinase reaction using luciferase-luciferin-coupled chemiluminescence. Reactions were conducted in 384-well white, medium binding microtiter plates (Greiner). Kinase reactions were initiated by combining test compounds, ATP, substrate (PIP2), and kinase in a 20 μL volume in a buffer solution. The standard PI3Kalpha assay buffer is composed 50 mM Tris, pH 7.5, 1 mM EGTA, 10 mM MgCl2, 1 mM DTT and 0.03% CHAPS. The standard assay concentrations for enzyme, ATP, and substrate are 1.5 nM, 1 μM, and 10 μM, respectively. The reaction mixture was incubated at ambient temperature for approximately 2 h. Following the kinase reaction, a 10 μL aliquot of luciferase-luciferin mix (Promega Kinase-Glo) was added and the chemiluminescence signal measured using a Victor2 plate reader (Perkin Elmer). Total ATP consumption was limited to 40-60% and IC50 values of control compounds correlate well with literature references. PI3Kα can be replaced with PI3Kβ, PI3Kδ, or PI3Kγ to determine the compound's activity for the other isoforms of PI3K.

[2] = molecular target: PI3Kβ (Homo sapiens, UniProt P42338); experiment: PI3K luciferase-coupled chemiluminescence assay (PI3Kβ in place of PI3Kα); format: biochemical; settings: second value of cell 'P13K-α, β'
Procedure: as §1, §2

[3] = molecular target: mTOR/GbL/Raptor (mTORC1) (Homo sapiens, UniProt P42345); experiment: mTOR/GbL/Raptor (mTORC1) ELISA assay; format: biochemical; settings: mTORC1, 10 μM ATP, 4E-BP1 substrate
Procedure: mTOR/GbL/Raptor (mTORC1) ELISA Assay
The measurement of mTORC1 enzyme activity was performed in an ELISA assay format following the phosphorylation of 4E-BP1 protein. All experiments were performed in the 384-well format. Generally, 0.5 μL DMSO containing varying concentrations of the test compound was mixed with 15 μL enzyme solution. Kinase reactions were initiated with the addition of 15 μL of substrates-containing solution. The assay conditions were as follows; 0.2 nM mTORC1, 10 μM ATP and 50 nM NHis-tagged 4E-BP1 in 20 mM Hepes, pH 7.2, 1 mM DTT, 50 mM NaCl, 10 mM MnCl2, 0.02 mg/mL BSA, 0.01% CHAPS, 50 mM ([…]. Following an incubation of 120 minutes at ambient temperature, 20 μL of the reaction volume was transferred to a Ni-Chelate-coated 384-well plate. The binding step of the 4E-BP1 protein proceeded for 60 minutes, followed by washing 4 times each with 50 μL of Tris-buffered saline solution (TBS). Anti-phospho-4E-BP1 rabbit-IgG (20 μL, 1:5000) in 5% BSA-TBST (0.2% Tween-20 in TBS) was added and further incubated for 60 minutes. Incubation with a secondary HRP-tagged anti-IgG was similarly performed after washing off the primary antibody (4 washes of 50 μL). Following the final wash step with TBST, 20 μL of SuperSignal ELISA Femto (Pierce Biotechnology) was added and the luminescence measured using an EnVision plate reader.

[4] = test system: PC-3 cells; experiment: PC-3 2 day BrdU cell proliferation assay; format: cell-based, human
Procedure: (§3) MCF-7 and PC-3 2 Day BrdU Cell Proliferation Assay
(§4) MCF-7 (ATCC) and PC-3 (ATCC) cells were seeded onto 96-well plates (Corning, #3904) in their growth medium, DMEM (Cellgro, #10-014-CV)+10% heat-inactivated FBS (Invitrogen)+1% Pen/Strep (Cellgro, #30-002-CI)+1% NEAA (Cellgro, #25-025-CI) at a seeding density of 15000 and 8000 cells/well, respectively. Cells were incubated overnight at 37° C., 5% CO2. Cells were then treated the next day with a serial dilution of compound in its growth medium (containing a final concentration of 0.3% DMSO). Triplicate wells were used for each compound concentration. The control wells received 0.3% DMSO in growth medium. The plates were incubated at 37° C., 5% CO2 for an additional 48 hr. Cells were labeled with BrdU (Roche, #10280879001, 20 μM) for 2-4 hr and then fixed with 70% EtOH+0.1 M NaOH for 30 min at RT. Anti-BrdU-Peroxidase (Roche, #11585860001, 1/2000 in PBS+1% BSA) conjugate was added to the cells, after which the plates were washed 3 times with 1×PBS. Chemiluminescent substrate solution (Pierce, #3707A/B) was added, and the plates were read for luminescence using the Wallac Victor plate reader for 0.1 sec. IC50 values were determined based on cell proliferation with compound treatment compared to the 0.3% DMSO vehicle control.

[5] = Mouse microsomal oxidation assay; format: in vitro ADME; settings: 15 μM compound, 0.5 mg/mL microsomal protein, 1 mM NADPH, 37° C., 30 min; +/−10% equivalent to little or no oxidation
Procedure: Mouse Microsomal Oxidation Assay
Microsomal oxidation of test compounds in the presence of mouse liver microsomal fractions was conducted in 96-well microtiter plates. Liver microsomal preparations were purchased from BD Gentest (Cat #452701). Test compounds were incubated in duplicate at 37° C. for 30 min in the presence of liver microsomes and NADPH. Reaction mixtures (75 μL) contained a final concentration of 15 μM test compound, 0.15% DMSO, 0.5 mg/mL microsomal protein and 1 mM NADPH in 100 mM potassium phosphate, pH 7.4 buffer. Control incubations contained the full complement of enzyme and substrate but no NADPH added. All test-sets included reference CYP450 substrates to verify assay performance. Reactions were terminated by the addition of 150 μL acetonitrile containing 0.1% formic acid. The concentration of the test compound remaining was determined by LC/MS/MS analysis on Sciex API-3000 instrument. The % oxidation is determined by the change in peak integration for the test compound (+/−NADPH) relative to the peak integration of internal standard injected with the sample: % oxidation=[((Int. peakcompound, no NADPH/Int. peakstandard)−(Int. peakcompound, NADPH/Int. peakstandard))[…]] Chromatographic separation of analytes was achieved using a Phenomenex Synergi Hydro-RP column (Torrance, Calif.) and a mobile phase consisting of 0.1% formic acid in acetonitrile and 0.1% formic acid in water. A linear gradient from 2-98% acetonitrile was used to elute compounds from the HPLC column. The typical variation (ie, precision) observed in the measurements for a given sample (e.g., multiple injections of the same sample) is ca. 10%, and thus experimental values of +/−10% can be considered to be equivalent to little or no oxidation.

[6] = test system: pS6 (S240/S244) PC-3 cell line; experiment: pS6 (S240/244) ELISA assay in PC-3 cells; format: cell-based, human; settings: 3 h compound, ratio pS6 to total S6
Procedure: PC-3 and MCF-7 cells (both from ATCC) were seeded at 8×10^3 cells per well in 96-well plates (Corning, 3904) in DMEM (Cellgro) containing 10% FBS (Cellgro), 1% NEAA (Cellgro) and 1% penicillin-streptomycin (Cellgro). Two plates were prepared for cell fixation ELISA, one for pS6 (S240/244) and one for total S6. Cells were incubated at 37° C., 5% CO2 for 48 h, and the growth medium was replaced with serum-free DMEM. Serial dilutions of the test compound in 0.3% DMSO (vehicle) were added to the cells and incubated for 3 h. To fix the cells, medium was removed and 100 μL/well of 4% formaldehyde (Sigma Aldrich, F8775) in TBS (20 mM Tris, 500 mM NaCl) was added to each well at RT for 30 min. Cells were washed 3 times with 200 μL TBS containing 0.1% Tween20 (Bio-Rad, catalog #170-6351) (TBST), and quenched with 100 μL 0.6% H2O2 (VWR International, catalog #VW3742-1) in TBST for 30 min at RT. Plates were washed 3 times with 200 μL TBST and blocked with 100 μL 5% BSA (Jackson ImmunoResearch, 001-000-173) in TBST for 1 h at RT. Anti-pS6 (S240/244) antibody (Cell Signaling Technology, 2215) and anti-total-S6 antibody (Cell Signaling Technology, 2217) were diluted 1/500 in 5% BSA in TBST, and 50 μL of either primary antibody solution was added to one plate to detect pS6 or total S6. After incubation overnight at 4° C., plates were washed 4 times with 200 μL TBST. Goat anti-rabbit secondary antibody (Jackson ImmunoResearch, catalog #111-035-003) was diluted at 1/15000 in 5% BSA in TBST. 100 μL of antibody solution was added to each well and incubated for 1 h at RT. Plates were washed 3 times with 200 μL TBST and 2 times with 200 μL TBS. Chemiluminescent substrate (Super Signal Elisa Femto Chemiluminescent Substrate; Pierce, 37075) was prepared at RT. One-hundred μL of chemiluminescent substrate per well was added and then the plate was shaken for 1 min. Luminescence was read immediately on a Wallac plate reader. IC50 values were determined based on the ratio of pS6 to total S6 signal for compound treated wells, normalized to the DMSO-treated control wells.

[7] = test system: MCF-7 cells; experiment: MCF-7 2 day BrdU cell proliferation assay; format: cell-based, human; settings: MCF-7, 48 hr
Procedure: as §3, §4

PI3Kα, sequence (P42336 whole entry): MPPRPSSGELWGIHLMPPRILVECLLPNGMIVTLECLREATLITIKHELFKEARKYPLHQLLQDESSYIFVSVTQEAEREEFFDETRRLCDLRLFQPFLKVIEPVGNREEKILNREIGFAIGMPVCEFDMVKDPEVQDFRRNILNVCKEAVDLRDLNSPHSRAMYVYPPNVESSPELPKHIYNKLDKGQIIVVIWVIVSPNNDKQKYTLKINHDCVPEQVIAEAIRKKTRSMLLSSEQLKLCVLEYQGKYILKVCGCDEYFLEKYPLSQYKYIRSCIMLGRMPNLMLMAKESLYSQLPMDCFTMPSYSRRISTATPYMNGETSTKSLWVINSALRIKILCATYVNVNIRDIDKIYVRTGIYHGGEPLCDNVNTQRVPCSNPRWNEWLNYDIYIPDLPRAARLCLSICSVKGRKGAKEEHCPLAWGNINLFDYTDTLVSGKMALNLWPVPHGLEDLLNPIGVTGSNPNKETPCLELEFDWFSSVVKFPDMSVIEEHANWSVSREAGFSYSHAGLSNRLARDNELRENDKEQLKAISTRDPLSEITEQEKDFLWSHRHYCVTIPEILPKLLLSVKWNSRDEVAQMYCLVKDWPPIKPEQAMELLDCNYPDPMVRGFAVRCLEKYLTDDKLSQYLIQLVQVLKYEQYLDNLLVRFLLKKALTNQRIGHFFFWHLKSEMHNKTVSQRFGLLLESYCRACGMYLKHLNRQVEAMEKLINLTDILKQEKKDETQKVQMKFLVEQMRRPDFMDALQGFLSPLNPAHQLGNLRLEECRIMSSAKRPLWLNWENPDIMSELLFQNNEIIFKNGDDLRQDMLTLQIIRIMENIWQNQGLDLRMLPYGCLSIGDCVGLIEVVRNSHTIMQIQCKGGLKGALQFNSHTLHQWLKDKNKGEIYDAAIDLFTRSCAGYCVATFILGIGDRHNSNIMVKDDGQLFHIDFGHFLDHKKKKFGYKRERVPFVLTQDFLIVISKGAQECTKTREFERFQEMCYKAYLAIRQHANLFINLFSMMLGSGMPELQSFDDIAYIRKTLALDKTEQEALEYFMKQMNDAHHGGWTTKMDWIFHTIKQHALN
PI3Kα, sequence (P27986 whole entry partner): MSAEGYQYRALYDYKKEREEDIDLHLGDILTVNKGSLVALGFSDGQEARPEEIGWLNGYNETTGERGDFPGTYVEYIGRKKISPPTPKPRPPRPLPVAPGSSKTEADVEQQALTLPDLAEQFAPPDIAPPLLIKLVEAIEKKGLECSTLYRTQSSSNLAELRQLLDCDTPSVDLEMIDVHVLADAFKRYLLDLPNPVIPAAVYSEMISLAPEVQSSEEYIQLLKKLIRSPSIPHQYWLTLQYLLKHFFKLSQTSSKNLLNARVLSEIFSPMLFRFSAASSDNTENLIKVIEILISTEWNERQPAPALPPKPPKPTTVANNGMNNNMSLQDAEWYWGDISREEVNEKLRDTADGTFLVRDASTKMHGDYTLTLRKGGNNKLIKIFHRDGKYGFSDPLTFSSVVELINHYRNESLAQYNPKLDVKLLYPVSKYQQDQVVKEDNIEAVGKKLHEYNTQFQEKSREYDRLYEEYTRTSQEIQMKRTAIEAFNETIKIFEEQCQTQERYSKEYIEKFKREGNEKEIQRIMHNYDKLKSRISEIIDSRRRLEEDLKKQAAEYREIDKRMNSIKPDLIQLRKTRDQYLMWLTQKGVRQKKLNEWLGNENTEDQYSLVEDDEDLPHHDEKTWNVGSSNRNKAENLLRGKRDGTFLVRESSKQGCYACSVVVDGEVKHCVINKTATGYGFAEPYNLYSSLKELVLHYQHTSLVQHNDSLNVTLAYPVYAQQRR
PI3Kβ, sequence (P42338 whole entry, species assumed): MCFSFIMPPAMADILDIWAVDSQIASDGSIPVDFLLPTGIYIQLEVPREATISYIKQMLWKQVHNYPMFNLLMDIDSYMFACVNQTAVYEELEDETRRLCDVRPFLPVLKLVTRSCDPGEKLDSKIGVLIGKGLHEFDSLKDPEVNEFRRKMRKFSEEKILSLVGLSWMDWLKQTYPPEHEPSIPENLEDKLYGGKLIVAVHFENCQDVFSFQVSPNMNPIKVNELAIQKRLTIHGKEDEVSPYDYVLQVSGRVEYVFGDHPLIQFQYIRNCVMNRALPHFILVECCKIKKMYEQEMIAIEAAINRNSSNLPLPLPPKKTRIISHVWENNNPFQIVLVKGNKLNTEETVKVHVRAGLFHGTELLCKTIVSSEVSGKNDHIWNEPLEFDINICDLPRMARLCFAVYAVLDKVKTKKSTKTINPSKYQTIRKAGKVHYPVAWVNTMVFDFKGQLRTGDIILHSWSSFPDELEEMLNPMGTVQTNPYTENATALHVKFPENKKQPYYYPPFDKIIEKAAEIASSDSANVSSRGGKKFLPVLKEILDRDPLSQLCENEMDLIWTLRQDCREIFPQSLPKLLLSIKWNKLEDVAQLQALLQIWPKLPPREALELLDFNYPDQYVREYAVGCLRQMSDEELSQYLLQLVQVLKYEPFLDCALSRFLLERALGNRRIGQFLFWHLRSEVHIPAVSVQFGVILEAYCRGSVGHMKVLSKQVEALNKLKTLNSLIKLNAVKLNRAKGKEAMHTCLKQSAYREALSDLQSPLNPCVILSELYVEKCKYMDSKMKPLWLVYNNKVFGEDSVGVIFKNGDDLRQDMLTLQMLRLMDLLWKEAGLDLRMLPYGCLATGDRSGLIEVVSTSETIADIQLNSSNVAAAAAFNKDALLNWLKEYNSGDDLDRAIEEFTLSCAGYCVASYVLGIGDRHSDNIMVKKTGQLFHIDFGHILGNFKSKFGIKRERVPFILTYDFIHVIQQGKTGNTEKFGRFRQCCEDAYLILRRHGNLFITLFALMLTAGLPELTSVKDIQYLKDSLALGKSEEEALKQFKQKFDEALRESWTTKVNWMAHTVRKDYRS
PI3Kβ, sequence (P27986 whole entry partner, species assumed): as the sequence (P27986 whole entry partner) above

Compound: Cc1nc(N)nc2c1cc(-c1ccc(N(C)C)nc1)c(=O)n2[C@H]1CCCOC1 [reference compound]
- IC50 [1]: 9.2 nM
- IC50 [2]: 471 nM
- IC50 [3]: 5.8 nM

Compound: Cc1nc(N)nc2c1cc(-c1ccc(N)nc1)c(=O)n2C1CCOC1 (centres unmarked) [listing 2 of 2 here]
- IC50 ([4]; Homo sapiens, PC-3, 48 h): 401 nM
- Mouse Liver Microsome Oxidation (%) [5]: 1.7%
- IC50 ([6]; Homo sapiens, PC-3, 3 h): 36.6 nM
- IC50 ([7]; Homo sapiens, MCF7, 48 h): 377 nM

Compound: Cc1nc(N)nc2c1cc(-c1ccc(N(C)C)nc1)c(=O)n2C1CCCOC1 (centres unmarked) [reference compound] [listing 1 of 2 here]
- IC50 ([4]; Homo sapiens, PC-3, 48 h): 1330 nM
- Mouse Liver Microsome Oxidation (%) [5]: 41.3%
- IC50 ([6]; Homo sapiens, PC-3, 3 h): 71.7 nM
- IC50 ([7]; Homo sapiens, MCF7, 48 h): 247 nM

Compound: Cc1nc(N)nc2c1cc(-c1ccc(N)nc1)c(=O)n2C1CCCOC1 (centres unmarked) [listing 1 of 2 here]
- IC50 ([4]; Homo sapiens, PC-3, 48 h): 297 nM
- Mouse Liver Microsome Oxidation (%) [5]: 6.6%
- IC50 ([6]; Homo sapiens, PC-3, 3 h): 25.6 nM
- IC50 ([7]; Homo sapiens, MCF7, 48 h): 151 nM

Compound: Cc1nc(N)nc2c1cc(-c1ccc(N(C)C)nc1)c(=O)n2C1CCCOC1 (centres unmarked) [reference compound] [listing 2 of 2 here]
- IC50 [1]: 13.5 nM
- IC50 [2]: 205 nM
- IC50 [3]: 6.1 nM
- IC50 ([4]; PC-3, 48 hr): 741 nM
- Mouse Liver Microsome Oxidation (%) [5]: 31.2%
- IC50 [6]: 96.2 nM
- IC50 [7]: 151 nM

Compound: Cc1nc(N)nc2c1cc(-c1ccc(N)nc1)c(=O)n2[C@H]1CCOC1
- IC50 [1]: 15.5 nM
- IC50 [2]: 16.7 nM
- IC50 [3]: 5.5 nM

More lines, now with the values ahead:

- IC50 [1]: < 9.1 nM
- IC50 [2]: 34 nM
- IC50 [3]: 2.5 nM
- IC50 ([4]; PC-3, 48 hr): 497 nM
- Mouse Liver Microsome Oxidation (%) [5]: −8.2%
- IC50 [6]: 18.5 nM
- IC50 [7]: 217 nM
Compound: Cc1nc(N)nc2c1cc(-c1ccc(N)nc1)c(=O)n2C1CCOC1 (centres unmarked) [listing 1 of 2 here]

- IC50 [1]: 7.3 nM
- IC50 [2]: 60.8 nM
- IC50 [3]: 3 nM
Compound: Cc1nc(N)nc2c1cc(-c1ccc(N)nc1)c(=O)n2[C@H]1CCCOC1

- IC50 [1]: 2.8 nM
- IC50 [2]: 6.8 nM
- IC50 [3]: 6.8 nM
- IC50 ([4]; Homo sapiens, PC-3, 48 h): 469 nM
- Mouse Liver Microsome Oxidation (%) [5]: 45.6%
- IC50 ([6]; Homo sapiens, PC-3, 3 h): 40.8 nM
- IC50 ([7]; Homo sapiens, MCF7, 48 h): 218 nM
Compound: COc1ccc(-c2cc3c(C)nc(N)nc3n(C3CCCOC3)c2=O)cn1 (centres unmarked) [reference compound]

- IC50 [1]: 9 nM
- IC50 [2]: 19.8 nM
- IC50 [3]: 3.2 nM
- IC50 ([4]; Homo sapiens, PC-3, 48 h): 280 nM
- Mouse Liver Microsome Oxidation (%) [5]: −7.8%
- IC50 ([6]; Homo sapiens, PC-3, 3 h): 25 nM
- IC50 ([7]; Homo sapiens, MCF7, 48 h): 152 nM
Compound: Cc1nc(N)nc2c1cc(-c1ccc(N)nc1)c(=O)n2C1CCOCC1

- IC50 [1]: 5.5 nM
- IC50 [2]: 52.1 nM
- IC50 [3]: 2.6 nM
- IC50 ([4]; PC-3, 48 hr): 150 nM
- Mouse Liver Microsome Oxidation (%) [5]: 15.2%
- IC50 [6]: 15.8 nM
- IC50 [7]: 97.8 nM
Compound: Cc1nc(N)nc2c1cc(-c1ccc(N)nc1)c(=O)n2C1CCCOC1 (centres unmarked) [listing 2 of 2 here]
